According to PMC7758046, “Novel piperazine–chalcone hybrids and related pyrazoline analogues targeting VEGFR-2 kinase; design, synthesis, molecular docking studies, and anticancer evaluation” (Journal of Enzyme Inhibition and Medicinal Chemistry, 2020):
Entries after “also recorded” stand apart in the source; their conditions may differ.

How the values were obtained:
HCT-15 (Colon cancer) = assay: NCI-60 single-dose anticancer screen; type: cell-based, human; details: 10 µM single dose
Outline: (§1)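 Test concentration: 10 µM, single dose. Panel: 60 human tumour cell lines. Read-out: in vitro cytotoxicity, done at the NCI.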

MOLT-4 (Leukaemia) = assay: NCI-60 single-dose anticancer screen; type: cell-based, human; details: 10 µM single dose
Outline: as §1

MDA-MB-435 (Melanoma) = assay: NCI-60 single-dose anticancer screen; type: cell-based, human; details: 10 µM single dose
Outline: as §1

HCT-116 (Colon cancer) = assay: NCI-60 single-dose anticancer screen; type: cell-based, human; details: for cell growth promotion: 10 µM single dose; for inhibition at 10 µM: Homo sapiens, read-out: cell growth inhibition
Outline: as §1

HCC-2998 (Colon cancer) = assay: NCI-60 single-dose anticancer screen; type: cell-based, human; details: 10 µM single dose
Outline: as §1

ACHN (Renal cancer) = assay: NCI-60 single-dose anticancer screen; type: cell-based, human; details: 10 µM single dose
Outline: as §1

UACC-257 (Melanoma) = assay: NCI-60 single-dose anticancer screen; type: cell-based, human; details: 10 µM single dose
Outline: as §1

SN12C (Renal cancer) = assay: NCI-60 single-dose anticancer screen; type: cell-based, human; details: 10 µM single dose
Outline: as §1

K-562 (Leukaemia) = assay: NCI-60 single-dose anticancer screen; type: cell-based, human; details: for cell growth promotion: 10 µM single dose; for inhibition at 10 µM: Homo sapiens, K562, 10 µM single dose, read-out: cell growth inhibition
Outline: as §1

SNB-19 (CNS cancer) = assay: NCI-60 single-dose anticancer screen; type: cell-based, human; details: 10 µM single dose
Outline: as §1

[1] = tested on: HOP-62 (Non-small cell lung cancer); assay: NCI-60 single-dose anticancer screen; type: cell-based, human; details: 10 µM single dose
Outline: as §1

LOX IMVI (Melanoma) = assay: NCI-60 single-dose anticancer screen; type: cell-based, human; details: 10 µM single dose
Outline: as §1

SK-MEL-28 (Melanoma) = assay: NCI-60 single-dose anticancer screen; type: cell-based, human; details: 10 µM single dose
Outline: as §1

human VEGFR-2 = target: T1, human VEGFR-2 (Homo sapiens, UniProt P35968); assay: In vitro VEGFR-2 inhibitory assay (colorimetric human VEGFR-2 ELISA, HTScan VEGF Receptor 2 Kinase Assay Kit); type: biochemical; details: VEGFR-2 inhibition
T1 construct: It includes active VEGFR-2 kinase; purchased HTScan VEGF Receptor 2 Kinase Assay Kit
Method: VEGFR is considered as an important target for the development of potential anti-cancer candidates.
On a 96-well plate, a particular VEGFR-2 antibody was seeded and 100 µL of the normal solution or compound tested was applied, incubated at room temperature for 2.5 h and washed.
Then, 100 µL of the prepared biotin antibody was added, incubated for an additional 1 h at room temperature and washed. Following, 100 µL of streptavidin solution was added at room temperature, incubated for 45 min and then, 100 µL of TMB substrate solution was applied and incubated at room temperature for 30 min. Finally, 50 µL stop solution was added and the absorption was measured at 450 nm instantly. The standard curve, the X-axis concentrations, and the Y-axis absorbance were drawn.

HCT-116 cells [2] = assay: Annexin V-FITC/PI apoptosis assay; details: for Apoptosis Early: control 0.51; for Necrosis: control 1.21; for Apoptosis Total: control 1.97
HCT-116 cells [3] = assay: Cell cycle analysis by DNA flow cytometry; type: cell-based, human; details: 10 µM; for %Pre-G1 / %G2/M / %S / %G0/G1: 24 h; for %Pre-G1: control 1.97; for %G2/M: control 15.44; for %S: control 30.18; for %G0/G1: control 54.38
Method: Flow cytometric analysis is considered a valuable method for determining and analysing the cell cycle parameters. […] The effect on the cell cycle distribution was assessed by a DNA flow cytometry analysis and the cell cycle parameters were compared to untreated control cells in HCT-116 cells which had been incubated with 10 µM of Vd and Ve compounds and the results are shown in Table 3 and Figure 3.
HCT-116 cells were seeded at concentrations of 1 × 10^5 cells per well in a six-well plate, then incubated for 24 h. The cells were treated for 24 h with vehicles (0.1% DMSO) or 10 µM of Vd or Ve compounds. Using ice-cold, 70% ethanol at 4 °C, cells were harvested and fixed for 12 h after that. Ethanol removal and cold PBS washing of the cells were done. Then incubated in 0.5 mL of PBS containing 1 mg/mL Ranse for 30 min at 37 °C. In the dark, the cells were stained with PI for 30 min. Flow cytometer was then used to detect contents of DNA[62].

T1 sequence (P35968 20-1356): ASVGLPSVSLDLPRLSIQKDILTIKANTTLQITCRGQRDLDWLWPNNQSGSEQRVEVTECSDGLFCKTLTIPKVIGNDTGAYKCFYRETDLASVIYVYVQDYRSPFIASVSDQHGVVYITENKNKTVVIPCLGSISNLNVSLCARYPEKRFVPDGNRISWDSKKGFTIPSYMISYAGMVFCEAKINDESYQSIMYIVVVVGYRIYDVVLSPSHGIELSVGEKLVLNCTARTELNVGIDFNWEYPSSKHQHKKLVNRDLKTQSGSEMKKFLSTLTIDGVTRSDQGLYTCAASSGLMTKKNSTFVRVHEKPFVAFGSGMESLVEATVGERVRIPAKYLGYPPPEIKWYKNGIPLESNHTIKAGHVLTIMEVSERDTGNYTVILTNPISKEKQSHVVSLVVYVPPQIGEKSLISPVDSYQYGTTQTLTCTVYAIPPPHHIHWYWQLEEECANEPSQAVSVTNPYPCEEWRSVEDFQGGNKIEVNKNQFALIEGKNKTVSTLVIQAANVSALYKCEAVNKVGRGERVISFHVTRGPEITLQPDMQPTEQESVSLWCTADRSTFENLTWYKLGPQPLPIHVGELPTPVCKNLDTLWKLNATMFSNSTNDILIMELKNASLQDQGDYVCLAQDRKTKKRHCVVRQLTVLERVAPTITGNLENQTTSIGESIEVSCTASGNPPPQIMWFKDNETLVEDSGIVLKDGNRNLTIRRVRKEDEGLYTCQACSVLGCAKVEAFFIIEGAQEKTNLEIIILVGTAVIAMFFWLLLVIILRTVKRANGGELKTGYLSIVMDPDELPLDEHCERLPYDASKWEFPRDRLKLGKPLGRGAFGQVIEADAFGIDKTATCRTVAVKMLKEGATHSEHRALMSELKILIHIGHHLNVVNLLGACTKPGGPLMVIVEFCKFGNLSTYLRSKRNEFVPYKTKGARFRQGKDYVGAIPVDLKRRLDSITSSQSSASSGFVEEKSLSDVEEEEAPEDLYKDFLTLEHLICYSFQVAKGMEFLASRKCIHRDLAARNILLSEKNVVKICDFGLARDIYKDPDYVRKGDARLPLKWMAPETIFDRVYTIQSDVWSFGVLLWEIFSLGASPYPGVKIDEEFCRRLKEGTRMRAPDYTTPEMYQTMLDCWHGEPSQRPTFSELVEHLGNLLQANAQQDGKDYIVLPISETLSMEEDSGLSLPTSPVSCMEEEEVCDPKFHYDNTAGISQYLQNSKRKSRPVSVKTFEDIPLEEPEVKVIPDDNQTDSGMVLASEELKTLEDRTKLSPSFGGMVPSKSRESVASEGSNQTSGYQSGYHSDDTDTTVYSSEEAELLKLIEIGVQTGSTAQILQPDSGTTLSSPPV

SMILES	cell growth promotion (HCT-15 (Colon cancer))	cell growth promotion (MOLT-4 (Leukaemia))	cell growth promotion (MDA-MB-435 (Melanoma))	cell growth promotion (HCT-116 (Colon cancer))	inhibition at 10 µM (HCT-116 (Colon cancer))	cell growth promotion (HCC-2998 (Colon cancer))	cell growth promotion (ACHN (Renal cancer))	cell growth promotion (UACC-257 (Melanoma))	cell growth promotion (SN12C (Renal cancer))	cell growth promotion (K-562 (Leukaemia))	inhibition at 10 µM (K-562 (Leukaemia))	cell growth promotion (SNB-19 (CNS cancer))	cell growth promotion [1]	cell growth promotion (LOX IMVI (Melanoma))	cell growth promotion (SK-MEL-28 (Melanoma))	IC50 (human VEGFR-2)	total increase in apoptosis compared to the control (HCT-116 cells [2])	Apoptosis Early (HCT-116 cells [2]; 10 µM, 24 h)	Necrosis (HCT-116 cells [2]; 10 µM, 24 h)	melting point	also measured
O=C(C=Cc1cccc(F)c1)c1ccc(N2CCNCC2)cc1 [Vd, 3-(3-Fluorophenyl)-1-(4-(piperazin-1-yl)phenyl)prop-2-en-1-one]	73.49%	68.62%	94.27%	42.08%	57.9%	94.99%	84.70%	75.92%	68.16%	16.55%	83.5%	71.95%	80.17%	71.13%	109.03%	0.8 µM	approximately 18.7 fold	3.92%	2.3%		Apoptosis Late (HCT-116 cells [2]; 10 µM, 24 h, control 0.25): 10.32%; Apoptosis Total (HCT-116 cells [2]; 10 µM, 24 h): 16.54%; Comment (cell cycle arrest phase) (HCT-116 cells [3]): arrest HCT-116 cell cycle in the G2/M phase; also recorded: induced cell arrest at G2/M phase; %Pre-G1 (HCT-116 cells [3]): 16.54%; %G2/M (HCT-116 cells [3]): 50.44%; %S (HCT-116 cells [3]): 27.78%; %G0/G1 (HCT-116 cells [3]): 21.78%
COc1cc(C=CC(=O)c2ccc(N3CCNCC3)cc2)ccc1F [Ve, 3-(4-Fluoro-3-methoxyphenyl)-1-(4-(piperazin-1-yl)phenyl) prop-2-en-1-one]	43.16%	80.75%	80.14%	27.43%	72.6%	100.21%	68.11%	76.08%	57.67%	12.37%	87.6%	59.87%	101.42%	49.01%	106.02%	0.57 µM	~21.2 fold	4.76%	2.11%		Apoptosis Total (HCT-116 cells [2]; 10 µM, 24 h): 18.22%; Comment (cell cycle arrest phase) (HCT-116 cells [3]): arrest HCT-116 cell cycle in the G2/M phase; also recorded: induced cell arrest at G2/M phase; %Pre-G1 (HCT-116 cells [3]): 18.22%; %G2/M (HCT-116 cells [3]): 46.85%; %S (HCT-116 cells [3]): 28.58%; %G0/G1 (HCT-116 cells [3]): 24.57%
N#Cc1ccccc1C1CC(c2ccc(N3CCNCC3)cc2)=NN1 (stereo not shown) [VIa, 2-(3-(4-(Piperazin-1-yl)phenyl)-4,5-dihydro-1H-pyrazol-5-yl)benzonitrile]	112.02%	96.02%	102.57%	85.83%	14.2%	96.75%	104.24%	85.21%	98.09%	78.12%	21.9%	95.34%	86.44%	99.03%	114.17%	1.48 µM				165 °C	
Fc1cnccc1C1CC(c2ccc(N3CCNCC3)cc2)=NN1 (stereo not shown) [VIc, 1-(4-(5-(3-Fluoropyridin-4-yl)-4,5-dihydro-1H-pyrazol-3-yl)phenyl) piperazine]	97.59%	74.15%	105.18%	73.82%	26.2%	101.72%	99.87%	83.07%	89.56%	77.92%		97.45%	83.16%	94.31%	115.80%	1.31 µM				135 °C	
O=C(C=Cc1ccncc1F)c1ccc(N2CCNCC2)cc1 [Vf, 3-(3-Fluoropyridin-4-yl)-1-(4-(piperazin-1-yl)phenyl)prop-2-en-1-one]	111.39%	91.63%	102.37%	73.87%	26.1%	100.88%	113.06%	70.86%	99.00%	85.84%	14.2%	96.07%	102.01%	103.22%	115.56%	1.33 µM				225 °C	
COc1cc(C2CC(c3ccc(N4CCNCC4)cc3)=NN2)ccc1F (stereo not shown) [VIb, 1-(4-(5-(4-Fluoro-3-methoxyphenyl)-4,5-dihydro-1H-pyrazol-3-yl)phenyl) piperazine]	85.57%	72.10%	101.87%	61.10%	38.9%	104.57%	101.47%	80.93%	83.08%	58.92%	41.1%	95.65%	86.01%	79.56%	109.51%	1.06 µM				195 °C	
